Measurements published in patent US20220348877A1, “GENERATION OF QUIESCENT CARDIAC FIBROBLASTS FROM HUMAN INDUCED PLURIPOTENT STEM CELLS FOR IN VITRO MODELING OF CARDIAC FIBROSIS” (The Board of Trustees of the Leland Stanford Junior …, priority 2019, published 2022).
“Also recorded” adds a separate entry of the source.

Experiments:
human iPSC-CFs [1] = test: Flow cytometry (FACS) of α-SMA+ myofibroblast population; format: cell-based; conditions: for effect on TGF-β-induced upregulation of α-SMA / propagation of the α-SMA+ population: in presence of TGF-β, FIG. 5I
Method: Fluorescence-activated cell sorting (FACS) analysis. Cells were dissociated into singlets by TrypLE™ (12605, Gibco) for 10 min at 37° C., and the cell suspension was filtered through a 40-μm cell strainer (BD Falcon, San Diego) to remove cell clumps. Single cells were fixed and permeabilized by BD CytofixCytoperm™ buffer (BD 554722) for 20 min at 4° C. Next, cells were incubated with primary antibodies followed by Alexa Fluor™ secondary antibodies (Invitrogen). Primary antibodies against COLI (ab90395, Abcam), DDR2 (sc-81707, Santa Cruz), TCF21 (hpa013189, Sigma-Aldrich), α-SMA (ab7817, Abcam), and WT1 (ab89901, Abcam) were used. The percentage of fibroblasts was calculated as the ratio of TCF21+, DDR2+, and COL-1+ cells in the whole population, respectively. The percentage of myofibroblasts was calculated as the ratio of α-SMA+ cells in the whole population.
(§1) Drug treatment. Unless otherwise stated, cells were treated with all drugs for 48 hrs. We used 5 ng/ml of TGFβ1 (240-B-010, R&D) to activate iPSC-CFs. Due to the short half-life, BNP (CYT-369, Prospec) was added into the medium three times a day. We used 20 μM of sacubitril (SML1380, Sigma) to inhibit ANP/BNP degradation. We used pirfenidone (S2907, Selleck Chemicals) and doxorubicin (25316-40-9, Selleck Chemicals) to test their anti-fibrotic and pro-fibrotic effects on iPSC-CFs, respectively.

human iPSC-CFs [2] = test: Collagen gel contraction assay; format: cell-based; conditions: gels imaged after 24 hrs
Method: Gel contraction assay. Collagen gel contraction assays were performed in three independent lines of iPSC-CFs (2.0×10^5 cells per well) using a Cell Contraction Assay kit (CBA5020, Cell Biolabs) as per the manufacturer's protocol. The cells were treated in the absence or presence of TGF-β±a TGF-β inhibitor SB431542 (SB). The gels were imaged after 24 hrs and gel area was quantified using ImageJ software (version 1.49).

human iPSC-CFs [3] = test: Quantitative real-time PCR of gene expression in drug-treated iPSC-CFs; format: cell-based
Method: (§2) Quantitative real-time PCR. Total RNA was isolated using the Qiagen miRNeasy Mini Kit (Qiagen Sciences, Inc, Germantown, Md.) following the manufacturer's instruction. For reverse transcription, a High Capacity RNA-to-cDNA kit (Life Technologies) was used, and the cDNA template was synthesized based on 1 μg of total mRNA. After mixing 0.2 μl of the cDNA template, 1 μl of TaqMan® primer sets (Life Technologies), 10 μl of TaqMan® Master Mix (Life Technologies), and 8.8 μl of ddH2O in the reaction system, real-time quantitative PCR was performed on the StepOne™ Real-Time PCR System (Life Technologies). Each reaction was run in triplicate. Expression values were normalized to the average expression of GAPDH.
as §1

human iPSC-CFs [4] = test: Immunoblotting of α-SMA in drug-treated iPSC-CFs; format: cell-based
Method: (§3) Immunoblotting and quantification. Cultured cells were homogenized in the RIPA buffer with proteinase and phosphatase inhibitor cocktails (78440, ThermoFisher), and quantified by Pierce™ BCA Protein Assay Kit (Pierce Biotechnology Inc.). A total of 20 μg protein was separated on NuPAGE® Novex® 4-12% Bis-Tris Protein Gels (Invitrogen, Carlsbad, Calif.). After being transferred to Amersham™ Hybond™ Blotting Membranes (GE Healthcare), proteins were incubated with primary antibodies against α-SMA (ab7817, Abcam), periostin (ab14041, Abcam), collagen Ill (ab7778, Abcam), fibronectin (ab6328, Abcam), MYH7 (sc-53089, Santa Cruz), and GAPDH (MA5-15738, Invitrogen). Band intensities for target bands were analyzed and quantified by the ImageJ Fuji program.
as §1

human iPSC-CFs [5] = test: CF differentiation and passaging in the presence of TGF-β inhibitor; format: cell-based
Method: Differentiation of human iPSC-derived cardiac fibroblasts. Human iPSCs were treated with 6 μM of CHIR99021 for 2 days, recovered in RPMI+B27-insulin for 24 hrs, treated with 5 μM of IWR-1 (10161, Sigma) for 2 days, and then RPMI+B27-insulin for another 24 hrs. On day 6, human induced pluripotent stem cell-derived cardiac progenitor cells (iPSC-CPCs) were re-plated at a density of 20,000 cells/cm2 in advanced DMEM medium (12634028, Gibco®, Life Technologies). On day 7 or 8, cells were treated with 5 μM of CHIR99021 and 2 μM of retinoic acid (R2625, Sigma-Aldrich) for 2 days, and recovered in advanced DMEM for 3 days. Typically, the purity of human induced pluripotent stem cell-derived epicardial cells (iPSC-EPCs) is >90% (WT1+). Human iPSC-EPCs were re-plated and treated with […] (100-18B, PeproTech) and 10 μM of SB431542 (S1067, Selleck chemicals) in a fibroblast growth medium for another 6 days. >90% purity of iPSC-CFs (COL-I+/DDR2+/TCF21+) can be achieved as assessed by FACS. Cultures were maintained in a humidified atmosphere (95% air, 5% CO2) at 37° C.
Differentiation of Quiescent Cardiac Fibroblasts from iPSC Derived Epicardial Cells. 1. On day 14, prepare fibroblast growth medium containing 20 ng/ml of FGF2 and 10 μM of SB431542. 2. Aspirate the spent medium, add 1 ml of Accutase per well in a 6-well plate, and incubate the plate in a […], 5% CO2 incubator for 5 min. […]

human iPSC-CFs [6] = test: Sirius red colorimetric assay of secreted collagen, iPSC-CFs; format: cell-based; conditions: 48 hrs
Method: Colorimetric assays. The cells were treated in the absence or presence of TGF-β for 48 hrs. Quantification of total secreted collagen in the cell culture supernatant was performed using a Sirius red collagen detection kit (9062, Chondrex). The colorimetric assay was performed according to the manufacturer's protocol.

primary CFs = test: Sirius red colorimetric assay of secreted collagen, primary CFs; format: cell-based, human; conditions: 48 hrs
Method: (§4) Human primary skin, cardiac, lung, bladder fibroblast, and brain pericyte cultures. Human primary cardiac fibroblasts were isolated and cultured as follows: a piece of fresh right atrial biopsy was weighed, minced into small pieces (1-2 mm^3), and digested in 6-well peri-dishes as described. Human primary cardiac fibroblasts were grown and maintained in a fibroblast growth medium (C-23025, Promocell) supplemented with 1% penicillin-streptomycin (15140-122, Gibco) in a humidified atmosphere (95% air, 5% CO2) at 37° C. The medium was renewed every 2-3 days. Cells were passaged using standard trypsinization techniques at 80-90% confluency. The same protocol was also used to isolate and culture fibroblasts from human skin and lung tissues. Primary bladder fibroblasts were purchased from Lifeline (FC-0050) and maintained in the same fibroblast growth medium. Human brain pericytes were purchased from Cell systems (ACBRI 498) and cultured in SmGM-2 medium (Lonza, CC-3182). All experiments were carried out using cells at low cell passages (<P4) and cells were serum-starved for 24 hrs before treatment.
Colorimetric assays. The cells were treated in the absence or presence of TGF-β for 48 hrs. Quantification of total secreted collagen in the cell culture supernatant was performed using a Sirius red collagen detection kit (9062, Chondrex). […]

human primary CFs = test: Quantitative real-time PCR of cardiac-specific genes in primary CFs; format: cell-based
Method: as §4, with “All experiments were carried out using cells at low cell passages (<P4) and cells were serum-starved for 24 hrs before treatment.” left out
Quantitative real-time PCR. […] After mixing 0.2 μl of the cDNA template, 1 μl of TaqMan® primer sets (Life Technologies), 10 μl of TaqMan® Master Mix (Life Technologies), and 8.8 μl of ddH2O in the reaction system, real-time quantitative PCR was performed on the StepOne™ Real-Time PCR System (Life Technologies). […]

[7] = circulatory system; degrading enzyme neprilysin; cited from earlier work
[8] = tested on: human iPSC-CFs co-cultured with iPSC-CMs; test: Indirect co-culture of iPSC-CFs with iPSC-CMs in the presence of TGF-β ± sacubitril (qPCR, immunoblot); format: cell-based
Method: as §2, §3, §1
Indirect and direct contact co-culture. […] As a control, iPSC-CMs were co-cultured with iPSC-CMs in the transwells. The co-cultures were incubated at 37° C. and 5% CO2 before analysis. For direct contact co-culture, we first labeled fibroblasts and iPSC-CMs with CFSE (C34554, Thermo Fischer) and Far cell trace red (C34564, Thermofisher) dyes, respectively. Then, iPSC-CFs were seeded on top of the iPSC-CM monolayer at a ratio of 1:5, allowing for direct cell-cell contact. After 5 days of co-culture, the two cell types were separated by FACS sorting for downstream molecular analyses. The medium used for co-culture is the mixture of RPMI+B27 and fibroblast growth medium at a ratio of 3:1.

Compound: COc1cccc2c1C(=O)c1c(O)c3c(c(O)c1C2=O)C[C@@](O)(C(=O)CO)C[C@@H]3O[C@H]1C[C@H](N)[C@H](O)[C@H](C)O1 [doxorubicin]
- induction of the α-SMA+ population (pro-fibrosis phenotype) (human iPSC-CFs [1]; FIG. 5J, vs ctrl group): dose-dependent pattern; also recorded: dose-dependent induction

Compound: Cc1ccc(=O)n(-c2ccccc2)c1 [pirfenidone]
- effect on TGF-β-induced upregulation of α-SMA / propagation of the α-SMA+ population (human iPSC-CFs [1]): significantly suppresses
- effect on TGF-β-induced upregulation of α-SMA / propagation of the α-SMA+ population (human iPSC-CFs [1]; listed as Pirfenidone): dose dependent inhibitory effect

Compound: NC(=O)c1ccc(-c2nc(-c3ccc4c(c3)OCO4)c(-c3ccccn3)[nH]2)cc1 [SB431542, 4-[4-(1,3-benzodioxol-5-yl)-5-(2-pyridinyl)-1H-imidazol-2-yl]benzamide, reference compound]
- effect on TGF-β-induced collagen gel contraction (human iPSC-CFs [2]; TGF-β ± SB): completely abrogated
- effect on TGF-β-induced upregulation of myofibroblast markers ACTA2 and POSTN (human iPSC-CFs [3]; TGF-β ± SB): effectively inhibited
- effect on TGF-β-induced increase of α-SMA protein levels (human iPSC-CFs [4]; CFs from different human iPSC lines, TGF-β ± SB): abolished
- effect on TGF-β-induced upregulation of α-SMA / propagation of the α-SMA+ population (human iPSC-CFs [1]): significantly suppresses
- levels of smooth muscle marker genes (ACTA2, CNN1, TAGLN, SMTN, MYH11) in iPSC-CFs (human iPSC-CFs [5]; SB added during CF differentiation, transcriptional and protein levels): negligible levels
- αSMA+ cells (quiescent state preserved) (human iPSC-CFs [5]; until passage 5, inhibitor present in fibroblast growth medium): ~5%

Compound: transforming growth factor-β [TGF-β]
- collagen gel contraction effect vs vehicle group (human iPSC-CFs [2]): stronger
- expression levels of ACTA2 and POSTN vs vehicle treatment (human iPSC-CFs [3]; 5 ng/ml TGFβ1, 48 hrs): significantly increased
- expression levels of ECM genes COL1A1, COL3A1, COL4A2, FN1 (human iPSC-CFs [3]; vs vehicle): significantly increased
- expression of MMP1 (human iPSC-CFs [3]; vs vehicle): downregulation
- expression of MMP2 (human iPSC-CFs [3]; vs vehicle): upregulation
- expression of TIMP1, TIMP2, TIMP3 (human iPSC-CFs [3]; vs vehicle): upregulation
- expression of proteoglycans (VCAN, CTGF, KAL1, TNC, SPARC) and focal adhesion molecules (ITGA4, ITGA5, ITGB5) (human iPSC-CFs [3]; vs vehicle): upregulated expression
- α-SMA protein levels after treatment (human iPSC-CFs [4]; CFs from different human iPSC lines): significantly increased
- secreted collagen content (human iPSC-CFs [6]): rise in collagen content
- secreted collagen content (primary CFs): rise in collagen content
- expression levels of cardiac-specific genes (GATA4, TBX20, TCF21) vs vehicle-treated cells (human primary CFs): significantly downregulated

Compound: brain natriuretic peptide [BNP]
- mRNA levels of CF markers (PDGFRA and TCF21) (human iPSC-CFs [3]; in the presence of TGF-β): higher levels
- mRNA levels of myofibroblast markers and ECM genes (ACTA2, POSTN, COL1A1, COL3A1) (human iPSC-CFs [3]; in the presence of TGF-β): significantly lower
- α-SMA protein levels with escalating concentrations (human iPSC-CFs [4]; in the presence of TGF-β, dose-dependent manner): significantly suppressed
- half-life [7]: 20 min

Compound: CCOC(=O)[C@H](C)C[C@@H](Cc1ccc(-c2ccccc2)cc1)NC(=O)CCC(=O)O [sacubitril]
- mRNA levels of myofibroblast markers and ECM genes in the co-cultured condition ([8]; TGF-β, 20 μM sacubitril): further decreased
- protein levels of myofibroblast markers and ECM genes in the co-cultured condition ([8]; TGF-β, 20 μM sacubitril): further decreased
- anti-fibrotic effect seen in co-culture ([8]; iPSC-CMs and iPSC-CFs co-culture): significantly enhanced
- myofibroblast marker periostin ([8]; only when added to the co-culture system): significantly decreased

Compound: atrial natriuretic peptide [ANP]
- half-life [7]: 3 min
